In PubChem BioAssay (NCI):
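Growth conditions: 96-well plates. Treatment: test compound, 48 hours, 5 concentrations. Analysis: linear interpolation between bracketing concentrations; unreached endpoints set to highest concentration. At the TGI there is no net growth.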

How the values were obtained:
Test in all cases: NCI anticancer screen, dose series, 48 h
786-0 renal = tested on: 786-0 renal
A498 renal = tested on: A498 renal
A549 NSCLC = tested on: A549 NSCLC
ACHN renal = tested on: ACHN renal
CAKI-1 renal = tested on: CAKI-1 renal
CCRF-CEM leukemia = tested on: CCRF-CEM leukemia
COLO 205 colon = tested on: COLO 205 colon
DLD-1 colon = tested on: DLD-1 colon
DMS 114 small cell lung = tested on: DMS 114 small cell lung
DMS 273 small cell lung = tested on: DMS 273 small cell lung
EKVX NSCLC = tested on: EKVX NSCLC
HCC-2998 colon = tested on: HCC-2998 colon
HCT-116 colon = tested on: HCT-116 colon
HCT-15 colon = tested on: HCT-15 colon
HL-60(TB) leukemia = tested on: HL-60(TB) leukemia
HOP-18 NSCLC = tested on: HOP-18 NSCLC
HOP-62 NSCLC = tested on: HOP-62 NSCLC
HOP-92 NSCLC = tested on: HOP-92 NSCLC
HT29 colon = tested on: HT29 colon
IGROV1 ovarian = tested on: IGROV1 ovarian
K-562 leukemia = tested on: K-562 leukemia
KM12 colon = tested on: KM12 colon
KM20L2 colon = tested on: KM20L2 colon
LOX IMVI melanoma = tested on: LOX IMVI melanoma
LXFL 529 NSCLC = tested on: LXFL 529 NSCLC
M14 melanoma = tested on: M14 melanoma
M19-MEL melanoma = tested on: M19-MEL melanoma
MALME-3M melanoma = tested on: MALME-3M melanoma
MOLT-4 leukemia = tested on: MOLT-4 leukemia
NCI-H226 lung = tested on: NCI-H226 lung
NCI-H23 lung = tested on: NCI-H23 lung
NCI-H460 lung = tested on: NCI-H460 lung
OVCAR-3 ovarian = tested on: OVCAR-3 ovarian
OVCAR-4 ovarian = tested on: OVCAR-4 ovarian
OVCAR-5 ovarian = tested on: OVCAR-5 ovarian
OVCAR-8 ovarian = tested on: OVCAR-8 ovarian
RPMI-8226 leukemia = tested on: RPMI-8226 leukemia
SF-268 CNS = tested on: SF-268 CNS
SF-295 CNS = tested on: SF-295 CNS
SF-539 CNS = tested on: SF-539 CNS
SK-MEL-2 melanoma = tested on: SK-MEL-2 melanoma
SK-MEL-28 melanoma = tested on: SK-MEL-28 melanoma
SK-MEL-5 melanoma = tested on: SK-MEL-5 melanoma
SK-OV-3 ovarian = tested on: SK-OV-3 ovarian
SN12C renal = tested on: SN12C renal
SNB-19 CNS = tested on: SNB-19 CNS
SNB-75 CNS = tested on: SNB-75 CNS
SNB-78 CNS = tested on: SNB-78 CNS
SR leukemia = tested on: SR leukemia
SW-620 colon = tested on: SW-620 colon
TK-10 renal = tested on: TK-10 renal
U251 CNS = tested on: U251 CNS
UACC-257 melanoma = tested on: UACC-257 melanoma
UACC-62 melanoma = tested on: UACC-62 melanoma
UO-31 renal = tested on: UO-31 renal

Question: Which TGI (786-0 renal) does the source give for `COc1ccccc1NC(=O)C1=C(C)NC(C)=C(C(=O)Nc2ccccc2OC)C1/C=C/c1ccccc1` here?
Answer: > 100 µM

Question: What about the TGI (A498 renal) of the same molecule?
Answer: > 100 µM

Question: And the TGI (A549 NSCLC)?
Answer: > 100 µM

Question: And the TGI (ACHN renal)?
Answer: > 100 µM

Question: What about the TGI (CAKI-1 renal) of the same molecule?
Answer: > 100 µM

Question: What about the TGI (CCRF-CEM leukemia) of the same molecule?
Answer: > 100 µM

Question: And the TGI (COLO 205 colon)?
Answer: > 100 µM

Question: What about the TGI (DLD-1 colon) of the same molecule?
Answer: > 100 µM

Question: What about the TGI (DMS 114 small cell lung) of the same molecule?
Answer: > 100 µM

Question: And the TGI (DMS 273 small cell lung)?
Answer: > 100 µM

Question: And the TGI (EKVX NSCLC)?
Answer: > 100 µM

Question: And the TGI (HCC-2998 colon)?
Answer: > 100 µM

Question: And the TGI (HCT-116 colon)?
Answer: > 100 µM

Question: And the TGI (HCT-15 colon)?
Answer: > 100 µM

Question: And the TGI (HL-60(TB) leukemia)?
Answer: > 100 µM

Question: And the TGI (HOP-18 NSCLC)?
Answer: > 100 µM

Question: And the TGI (HOP-62 NSCLC)?
Answer: > 100 µM

Question: What about the TGI (HOP-92 NSCLC) of the same molecule?
Answer: > 100 µM

Question: What about the TGI (HT29 colon) of the same molecule?
Answer: > 100 µM

Question: And the TGI (IGROV1 ovarian)?
Answer: > 100 µM

Question: And the TGI (K-562 leukemia)?
Answer: > 100 µM

Question: What about the TGI (KM12 colon) of the same molecule?
Answer: > 100 µM

Question: And the TGI (KM20L2 colon)?
Answer: > 100 µM

Question: What about the TGI (LOX IMVI melanoma) of the same molecule?
Answer: > 100 µM

Question: What about the TGI (LXFL 529 NSCLC) of the same molecule?
Answer: > 100 µM

Question: And the TGI (M14 melanoma)?
Answer: > 100 µM

Question: What about the TGI (M19-MEL melanoma) of the same molecule?
Answer: > 100 µM

Question: What about the TGI (MALME-3M melanoma) of the same molecule?
Answer: > 100 µM

Question: What about the TGI (MOLT-4 leukemia) of the same molecule?
Answer: > 100 µM

Question: And the TGI (NCI-H226 lung)?
Answer: > 100 µM

Question: And the TGI (NCI-H23 lung)?
Answer: > 100 µM

Question: What about the TGI (NCI-H460 lung) of the same molecule?
Answer: > 100 µM

Question: What about the TGI (OVCAR-3 ovarian) of the same molecule?
Answer: > 100 µM

Question: What about the TGI (OVCAR-4 ovarian) of the same molecule?
Answer: > 100 µM

Question: What about the TGI (OVCAR-5 ovarian) of the same molecule?
Answer: > 100 µM

Question: And the TGI (OVCAR-8 ovarian)?
Answer: > 100 µM

Question: What about the TGI (RPMI-8226 leukemia) of the same molecule?
Answer: > 100 µM

Question: And the TGI (SF-268 CNS)?
Answer: > 100 µM

Question: And the TGI (SF-295 CNS)?
Answer: > 100 µM

Question: What about the TGI (SF-539 CNS) of the same molecule?
Answer: > 100 µM

Question: And the TGI (SK-MEL-2 melanoma)?
Answer: > 100 µM

Question: And the TGI (SK-MEL-28 melanoma)?
Answer: > 100 µM

Question: And the TGI (SK-MEL-5 melanoma)?
Answer: > 100 µM

Question: And the TGI (SK-OV-3 ovarian)?
Answer: > 100 µM

Question: What about the TGI (SN12C renal) of the same molecule?
Answer: > 100 µM

Question: And the TGI (SNB-19 CNS)?
Answer: > 100 µM

Question: What about the TGI (SNB-75 CNS) of the same molecule?
Answer: 79.7 µM

Question: And the TGI (SNB-78 CNS)?
Answer: > 100 µM

Question: And the TGI (SR leukemia)?
Answer: > 100 µM

Question: And the TGI (SW-620 colon)?
Answer: > 100 µM

Question: And the TGI (TK-10 renal)?
Answer: > 100 µM

Question: And the TGI (U251 CNS)?
Answer: > 100 µM

Question: And the TGI (UACC-257 melanoma)?
Answer: > 100 µM

Question: What about the TGI (UACC-62 melanoma) of the same molecule?
Answer: > 100 µM

Question: What about the TGI (UO-31 renal) of the same molecule?
Answer: > 100 µM

Question: Which results are given for `CCN(CC)CC1CCCCN1CC(=O)N1CC(C)C(=O)Nc2ccccc21` (configuration not stated)?
Answer: TGI (786-0 renal): > 100 µM; TGI (A498 renal): > 100 µM; TGI (A549 NSCLC): > 100 µM; TGI (ACHN renal): > 100 µM; TGI (CAKI-1 renal): > 100 µM; TGI (CCRF-CEM leukemia): > 100 µM; TGI (COLO 205 colon): > 100 µM; TGI (DLD-1 colon): > 100 µM; TGI (DMS 114 small cell lung): > 100 µM; TGI (DMS 273 small cell lung): > 100 µM; TGI (HCC-2998 colon): > 100 µM; TGI (HCT-116 colon): > 100 µM; TGI (HCT-15 colon): > 100 µM; TGI (HL-60(TB) leukemia): > 100 µM; TGI (HOP-18 NSCLC): > 100 µM; TGI (HOP-62 NSCLC): > 100 µM; TGI (HOP-92 NSCLC): > 100 µM; TGI (HT29 colon): > 100 µM; TGI (IGROV1 ovarian): > 100 µM; TGI (K-562 leukemia): > 100 µM; TGI (KM20L2 colon): > 100 µM; TGI (LOX IMVI melanoma): > 100 µM; TGI (LXFL 529 NSCLC): > 100 µM; TGI (M14 melanoma): > 100 µM; TGI (M19-MEL melanoma): > 100 µM; TGI (MALME-3M melanoma): > 100 µM; TGI (MOLT-4 leukemia): > 100 µM; TGI (NCI-H226 lung): > 100 µM; TGI (NCI-H23 lung): > 100 µM; TGI (NCI-H460 lung): > 100 µM; TGI (OVCAR-3 ovarian): > 100 µM; TGI (OVCAR-4 ovarian): > 100 µM; TGI (OVCAR-5 ovarian): > 100 µM; TGI (RPMI-8226 leukemia): > 100 µM; TGI (SF-268 CNS): > 100 µM; TGI (SF-295 CNS): > 100 µM; TGI (SK-MEL-28 melanoma): > 100 µM; TGI (SK-MEL-5 melanoma): > 100 µM; TGI (SK-OV-3 ovarian): > 100 µM; TGI (SN12C renal): > 100 µM; TGI (SNB-19 CNS): > 100 µM; TGI (SR leukemia): > 100 µM; TGI (SW-620 colon): > 100 µM; TGI (U251 CNS): > 100 µM; TGI (UACC-257 melanoma): > 100 µM; TGI (UACC-62 melanoma): > 100 µM; TGI (UO-31 renal): > 100 µM
